In data set [1] the target is kappa-opioid receptor (KOR) (Homo sapiens, UniProt P41145). The data set is described as follows: inhibition of forskolin-induced cAMP accumulation assay, KOR antagonist mode versus U50488H. It counts as cell-based. Particulars: for IC50: read-out: KOR Antagonist IC50+/-SEM. A general note: Changes in cAMP serve as a functional read-out for many G protein-coupled receptors.

For data set [2], the target named is T1, delta-opioid receptor (DOR) (Homo sapiens, UniProt P41143). The data set is described as follows: inhibition of forskolin-induced cAMP accumulation assay, DOR antagonist mode versus SNC80. It counts as cell-based. Particulars: for IC50: read-out: DOR Antagonist IC50+/-SEM.
For data set [3], the system named is squirrel monkeys. Description: ventilatory ratio / respiratory effects in squirrel monkeys. In kind it is in vivo.
For data set [4], the target named is T2, MOR (Homo sapiens, UniProt P35372). The data set is described as follows: GTP assay (G-protein activation) at MOR. It counts as biochemical.
The target in a further data set is mu-opioid receptor (MOR) (Homo sapiens, UniProt P35372). Description: cell-based. It counts as cell-based. Particulars: for EC50: read-out: MOR Agonist EC50+/-SEM; for Emax: read-out: MOR Agonist % Emax+/-SEM.
Data set [5] deals with squirrel monkeys. The data set is described as follows: antinociceptive effects in vivo in squirrel monkeys.
The target of data set [6] is T2, MOR. Description: binding affinity at MOR.
Data set [7] concerns the target T1, delta-opioid receptor (DOR). The data set is described as follows: inhibition of forskolin-induced cAMP accumulation assay, DOR agonist mode. It counts as cell-based. Particulars: for Emax: read-out: DOR Agonist % Emax+/-SEM (converted); for EC50: read-out: DOR Agonist EC50+/-SEM.

Like-named read-outs stand apart in the source and are kept apart here.

Chain of kappa-opioid receptor (KOR) (P41145 whole entry): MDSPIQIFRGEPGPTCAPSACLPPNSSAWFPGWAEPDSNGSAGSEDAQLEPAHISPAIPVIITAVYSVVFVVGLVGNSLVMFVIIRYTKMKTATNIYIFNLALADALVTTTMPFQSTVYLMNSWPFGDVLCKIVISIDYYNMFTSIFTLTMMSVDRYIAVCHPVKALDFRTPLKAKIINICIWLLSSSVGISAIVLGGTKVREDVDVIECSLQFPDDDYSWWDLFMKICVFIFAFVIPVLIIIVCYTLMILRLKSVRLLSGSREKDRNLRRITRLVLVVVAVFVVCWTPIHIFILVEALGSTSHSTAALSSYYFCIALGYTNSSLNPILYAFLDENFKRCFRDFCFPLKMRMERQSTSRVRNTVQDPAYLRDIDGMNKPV
T2 sequence (P35372 whole entry): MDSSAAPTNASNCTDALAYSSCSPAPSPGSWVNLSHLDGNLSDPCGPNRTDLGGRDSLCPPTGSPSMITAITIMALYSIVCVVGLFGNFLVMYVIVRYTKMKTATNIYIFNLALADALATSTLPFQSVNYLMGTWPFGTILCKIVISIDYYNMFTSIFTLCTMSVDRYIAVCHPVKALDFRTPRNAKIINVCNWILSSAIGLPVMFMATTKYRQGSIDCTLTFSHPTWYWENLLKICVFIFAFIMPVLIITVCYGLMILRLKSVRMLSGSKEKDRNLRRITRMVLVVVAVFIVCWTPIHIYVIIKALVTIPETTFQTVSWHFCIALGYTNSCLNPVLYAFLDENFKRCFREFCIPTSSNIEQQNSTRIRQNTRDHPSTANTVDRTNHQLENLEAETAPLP
Chain of mu-opioid receptor (MOR) (P35372 whole entry): as above
T1 sequence (P41143 whole entry): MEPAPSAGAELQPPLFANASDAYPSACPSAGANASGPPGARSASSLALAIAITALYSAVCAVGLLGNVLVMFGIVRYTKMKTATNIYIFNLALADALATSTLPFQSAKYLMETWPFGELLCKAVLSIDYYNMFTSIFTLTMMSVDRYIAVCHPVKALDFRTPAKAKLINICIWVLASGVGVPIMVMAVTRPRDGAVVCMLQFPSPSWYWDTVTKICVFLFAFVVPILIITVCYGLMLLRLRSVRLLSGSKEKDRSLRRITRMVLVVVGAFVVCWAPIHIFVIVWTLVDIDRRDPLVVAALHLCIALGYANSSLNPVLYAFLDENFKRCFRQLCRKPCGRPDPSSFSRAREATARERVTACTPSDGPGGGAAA

Turning to `CCC=C[C@@H]1[C@@H]2CCC[C@@]1(c1cccc(O)c1)CCN2CCc1ccccc1` (stereo in doubt) [Compound 33, 3-((1S,5R,9S)-9-((E)-but-1-en-1-yl)-2-phenethyl-2-azabicyclo[3.3.1]nonan-5-yl) phenol], the “KOR Antagonist % Imax+/-SEM” value in data set [1] (normalized to nor-BNI) is on record as 96.2 ± 0.9%. Besides, the figures for the IC50 in data set [1] (versus EC90 of U50488H) and in data set [2] (versus EC50 of SNC80) were 12.2 ± 2.49 nM and 520 ± 144 nM, respectively. Besides, the “DOR Antagonist % Imax+/-SEM” value in data set [2] (normalized to naltrexone) turned out to be 226.1 ± 14.0%.

Consider `C=C[C@H]1[C@@H]2CCC[C@@]1(c1cccc(O)c1)CCN2CCc1ccccc1` [Compound 19, 3-((1S,5R,9R)-2-Phenethyl-9-vinyl-2-azabicyclo[3.3.1]nonan-5-yl) phenol], for which, in data set [1], the “KOR Antagonist % Imax+/-SEM” value is recorded as 28.39 ± 4.24 (104.9 ± 11.2%); the “KOR antagonist (result in words)” value is “weak DOR and KOR antagonist”; the IC50 amounted to 28.4 nM. Further, in data set [2], the “DOR Antagonist % Imax+/-SEM” value is on record as 143.65 ± 41.03 (201.4 ± 35.9%); the “DOR antagonist (result in words)” value is “weak DOR and KOR antagonist”; the IC50 was determined as 144 nM.

As to `C=C[C@H]1[C@H]2CCC[C@]1(c1cccc(O)c1)CCN2CCc1ccccc1` [Compound 13, 3-((1R,5S,9R)-2-Phenethyl-9-vinyl-2-azabicyclo[3.3.1]nonan-5-yl) phenol], the “effect on ventilatory ratio” value in the data set with squirrel monkeys [3] is “decreased ventilatory ratio”. The Emax at MOR [4] came to 20.1%. Also, at mu-opioid receptor (MOR), the “MOR Agonist % Emax+/-SEM” value is given as 1.44 ± 0.48 (94.7 ± 3.1%) and the EC50 worked out at 1.44 nM. Moreover, the antinociceptive effects entry in the data set on squirrel monkeys [5] was “had antinociceptive effects in vivo”. The “KOR Antagonist % Imax+/-SEM” value in data set [1] (normalized to nor-BNI) came to 97.1 ± 9.2%. The IC50 in data set [1] (versus EC90 of U50488H) was 74 ± 30.5 nM. Besides, the “DOR Antagonist % Imax+/-SEM” value in data set [2] (normalized to naltrexone) stood at 119.1 ± 15.5%. For the same compound, the IC50 in data set [2] (versus EC50 of SNC80) is 113 ± 43.6 nM. Moreover, affinity at MOR [6] was put at a Ki of 0.5 nM.

In the case of `CCC=C[C@H]1[C@@H]2CCC[C@@]1(c1cccc(O)c1)CCN2CCc1ccccc1` (stereo in doubt) [Compound 34, 3-((1S,5R,9R)-9-((E)-but-1-en-1-yl)-2-phenethyl-2-azabicyclo[3.3.1]nonan-5-yl) phenol], in data set [1], the “KOR antagonist (result in words)” value is on record as “moderately potent KOR antagonist”. Moreover, the “KOR Antagonist % Imax+/-SEM” value in data set [1] (normalized to nor-BNI) is reported as 98.2 ± 2.3%. For the same compound, the figures for the IC50 in data set [1] (versus EC90 of U50488H) and in data set [2] (versus EC50 of SNC80) were 0.79 ± 0.28 nM and 8.22 ± 2.44 nM, respectively. For the same compound, the “DOR antagonist (result in words)” value in data set [2] is “potent DOR antagonist”. In addition, the “DOR Antagonist % Imax+/-SEM” value in data set [2] (normalized to naltrexone) is reported as 211.5 ± 24.7%.

Turning to `C=C[C@@H]1[C@@H]2CCC[C@@]1(c1cccc(O)c1)CCN2CCc1ccccc1` [Compound 18, 3-((1S,5R,9S)-2-Phenethyl-9-vinyl-2-azabicyclo[3.3.1]nonan-5-yl) phenol], in data set [7], the Emax is 40.6% and the EC50 came out at 122 ± 47.1 nM. Besides, at mu-opioid receptor (MOR), the Emax was 46.6% and the EC50 amounted to 3.94 nM. Moreover, in data set [1] (normalized to nor-BNI), the “KOR Antagonist % Imax+/-SEM” value amounted to 105.6 ± 4.6%. Further, the IC50 in data set [1] (versus EC90 of U50488H) was determined as 128 ± 48.2 nM.

`CC=C[C@H]1C2CCC[C@@]1(c1cccc(O)c1)CCN2CCc1ccccc1` (stereo in doubt) [Compound 26, 3-((1R,5R,9R)-2-Phenethyl-9-((E)-prop-1-en-1-yl)-2-azabicyclo[3.3.1]nonan-5-yl) phenol]: in data set [1], the “KOR antagonist (result in words)” value is given as “moderately potent KOR antagonist”. In data set [1] (normalized to nor-BNI), the “KOR Antagonist % Imax+/-SEM” value is 126.7 ± 2.6%. Moreover, the IC50 amounted to 4.02 ± 0.25 nM in data set [1] (versus EC90 of U50488H) and 7.52 ± 2.93 nM in data set [2] (versus EC50 of SNC80). In data set [2] (normalized to naltrexone), the “DOR Antagonist % Imax+/-SEM” value is 142.5 ± 23.7%.

Take `CC=C[C@H]1[C@H]2CCC[C@]1(c1cccc(O)c1)CCN2CCc1ccccc1` (stereo in doubt) [Compound 22, 3-((1R,5S,9R)-2-phenethyl-9-((E)-prop-1-en-1-yl)-2-azabicyclo[3.3.1]nonan-5-yl) phenol]: in the data set with squirrel monkeys [3], the “effect on ventilatory ratio” value is reported as “slightly lessor effects on ventilatory ratio” and the “respiratory effects compared with morphine” value is “lessor respiratory effects”. On MOR [4], this compound came in with an Emax of 18%. For the same compound, at mu-opioid receptor (MOR), the “MOR Agonist % Emax+/-SEM” value is 2.61 ± 0.64 (89.5 ± 2.9%) and the EC50 was 2.61 nM. Also, in the data set with squirrel monkeys [5], the antinociceptive effects result was “had antinociceptive effects”. Also, the “KOR Antagonist % Imax+/-SEM” value in data set [1] (normalized to nor-BNI) came to 111.6 ± 7.9%. Also, the IC50 in data set [1] (versus EC90 of U50488H) stood at 35 ± 9.72 nM. Moreover, in data set [2] (normalized to naltrexone), the “DOR Antagonist % Imax+/-SEM” value was determined as 143.3 ± 11.9%. The IC50 in data set [2] (versus EC50 of SNC80) amounted to 113 ± 19.8 nM.

`CCC=C[C@@H]1[C@H]2CCC[C@]1(c1cccc(O)c1)CCN2CCc1ccccc1` (stereo in doubt) [Compound 30, 3-((1R,5S,9S)-9-((E)-but-1-en-1-yl)-2-phenethyl-2-azabicyclo[3.3.1]nonan-5-yl) phenol]: on mu-opioid receptor (MOR), the Emax was 89.8% and the EC50 was found to be 14.8 nM. Further, the “KOR Antagonist % Imax+/-SEM” value in data set [1] (normalized to nor-BNI) is reported as 103.8 ± 9.2%. Besides, the IC50 in data set [1] (versus EC90 of U50488H) came out at 283 ± 46.4 nM. Further, the “DOR Antagonist % Imax+/-SEM” value in data set [2] (normalized to naltrexone) came out at 182.3 ± 56.4%. For the same compound, the IC50 in data set [2] (versus EC50 of SNC80) came to 3220 ± 572 nM.

`CC=C[C@@H]1[C@H]2CCC[C@]1(c1cccc(O)c1)CCN2CCc1ccccc1` (stereo in doubt) [Compound 23, 3-((1R,5S,9S)-2-Phenethyl-9-((E)-prop-1-en-1-yl)-2-azabicyclo[3.3.1]nonan-5-yl) phenol]: the EC50 in data set [7] was above 10000 nM. Besides, at mu-opioid receptor (MOR), the “MOR potency relative to morphine” value worked out at 30 fold, the Emax is 101% and the EC50 came to 0.07 nM. In addition, the “KOR Antagonist % Imax+/-SEM” value in data set [1] (normalized to nor-BNI) came out at 114.8 ± 11.2%. The IC50 in data set [1] (versus EC90 of U50488H) came to 238 ± 52.6 nM. The “DOR Antagonist % Imax+/-SEM” value in data set [2] (normalized to naltrexone) is 74.5 ± 2.3%. Also, the IC50 in data set [2] stood at 9.69 ± 2.23 nM.

In the case of `CCC=C[C@H]1[C@H]2CCC[C@]1(c1cccc(O)c1)CCN2CCc1ccccc1` (stereo in doubt) [Compound 29, 3-((1R,5S,9R)-9-((E)-but-1-en-1-yl)-2-phenethyl-2-azabicyclo[3.3.1]nonan-5-yl) phenol], on mu-opioid receptor (MOR), the Emax is 95.8% and the EC50 turned out to be 11.6 nM. Besides, the “KOR Antagonist % Imax+/-SEM” value in data set [1] (normalized to nor-BNI) turned out to be 109.5 ± 8.3%. Besides, the IC50 in data set [1] (versus EC90 of U50488H) worked out at 328 ± 96.9 nM. In addition, the “DOR Antagonist % Imax+/-SEM” value in data set [2] (normalized to naltrexone) worked out at 166.6 ± 40.0%. The IC50 in data set [2] (versus EC50 of SNC80) turned out to be 69 ± 4.83 nM.

Take `C=C[C@@H]1[C@H]2CCC[C@]1(c1cccc(O)c1)CCN2CCc1ccccc1` [Compound 14, 3-((1R,5S,9S)-2-Phenethyl-9-vinyl-2-azabicyclo[3.3.1]nonan-5-yl) phenol]: in the data set with squirrel monkeys [3], the “effect on ventilatory ratio” value is given as “without selective effects on ventilatory ratio” and the “respiratory effects compared with morphine” value is “lessor respiratory effects”. On MOR [4], this compound registered an Emax of 10.5%. Further, in data set [7], the Emax was 22.6% and the EC50 worked out at 57 ± 21.4 nM. In addition, at mu-opioid receptor (MOR), the Emax is 67.3% and the EC50 was 2.12 nM. Moreover, the antinociceptive effects entry in the data set on squirrel monkeys [5] is listed as “antinociceptive effects in some, but not all animals”. For the same compound, in data set [1] (normalized to nor-BNI), the “KOR Antagonist % Imax+/-SEM” value is listed as 101.8 ± 19.1%. For the same compound, the IC50 in data set [1] (versus EC90 of U50488H) came to 19.8 ± 9.71 nM.

For `CC=C[C@@H]1C2CCC[C@@]1(c1cccc(O)c1)CCN2CCc1ccccc1` (stereo in doubt) [Compound 27, 3-((1R,5R,9S)-2-Phenethyl-9-((E)-prop-1-en-1-yl)-2-azabicyclo[3.3.1]nonan-5-yl) phenol], the Emax in data set [7] is 66.7%; on mu-opioid receptor (MOR), 57.5%. In addition, the EC50 in data set [7] was 60.5 ± 3.74 nM; at mu-opioid receptor (MOR) it was 4.66 nM. The “KOR Antagonist % Imax+/-SEM” value in data set [1] (normalized to nor-BNI) was 111.8 ± 2.2%. The IC50 in data set [1] (versus EC90 of U50488H) came out at 163 ± 37 nM.

As a reminder, the Ki is the dissociation constant of the complex between target and ligand, obtained from inhibition or displacement. Read a low Ki as higher affinity.

The record behind these values is patent US20260022097A1 (priority 2022, published 2026).
